# Assay results published in patent US20180016593A1, “HERBICIDE-RESISTANT SUNFLOWER PLANTS, POLYNUCLEOTIDES ENCODING HERBICIDE-RESISTANT ACETOHYDROXYACID SYNTHASE LARGE SUBUNIT PROTEINS, AND METHODS OF USE” (priority 2005, published 2018).
# Key:
# [1] = test system: S4897 plants; set-up: species or system Helianthus annuus; settings: in vivo
# Experimental: In field trials in Argentina, S4897 plants were tested for resistance to imazapic. […] This trial had single row plots and was treated on a windy day, so the actual herbicide dose reaching the plants was likely less than was applied.
# [2] = test system: S4897 sunflower plants; assay: Greenhouse spray treatment with imazamox (FIG. 3, FIG. 4); assay type: in vivo, Helianthus annuus; settings: imazamox 100 or 200 g ai/ha, evaluated 17 days after application
# Experimental: (§1) The S4897 and IMISUN-1 sunflower plants were spray-treated with imazamox at rate of 200 g ai/ha. […] The photograph was taken a few days after the plants were spray treated.
# (§2) FIG. 4 is graphical illustration of herbicide injury in a greenhouse test following the spray treatment of IMISUN-1, wild-type, and S4897 sunflower plants with imazamox at either 100 (light columns) or 200 g ai/ ha (dark columns). […] Herbicide injury was evaluated 17 days after the imazamox application.
# [3] = test system: wild-type sunflower plants; assay: as above; assay type: in vivo, Helianthus annuus; settings: imazamox at either 100 or 200 g ai/ha
# Experimental: as §1, §2
# [4] = test system: Clearfield sunflower variety C; assay: Greenhouse spray injury rating (Example 5); assay type: in vivo; settings: variety C, 14 DAT
# Text: (§3) Methods: Sunflower lines S4897, Clearfield® sunflower varieties A, B, C and a conventional non-Clearfield variety were sprayed with three rates of imazamox (Raptor™), 100, 200 and 300 gm ai/ha plus 0.5% Sun It II and two rates of imazapyr (Arsenal™) 160 and 360 gm ai/ha plus 0.5% Sun It II when the plants were at the two to three leaf stage. Ratings were taken at 14 days after application (DAT) for injury. Injury was rated on a scale from 0 to 9 where […] to 9=dead plant. Twelve plants were sprayed per herbicide/rate treatment. Statistical analysis was conducted with STATGRAPHICS Plus 5.0 by using ANOVA and LSD procedures.
# (§4) Results: After plants were sprayed, it was realized that a height difference between S4897 and other sunflower varieties would have impacted the actual herbicide dose that was delivered. The spray boom height had been calibrated against S4897 and since the other varieties were taller and closer to the boom they would have received a greater dose of herbicide. Rates were recalibrated for the other varieties to determine the approximate dose they would have received. Assessments were made as presented in Table 2 since it was not possible to make a direct rate comparison due to the effect of the height. For example injury scores were compare for S4897 treated imazamox rate 100 gm ai/ha to the other varieties treated at 75 gm ai/ha. The treatment dose of 300 gm ai/ha for line S4897 was equivalent to the treatment of 200 gm ai/ha for the other varieties, which approximately was 300 gm ai/ha.
# [5] = test system: Clearfield sunflower variety B; assay: Greenhouse spray injury rating (Example 5); assay type: in vivo; settings: variety B, 14 DAT
# Text: as §3, §4
# [6] = test system: conventional non-Clearfield variety; assay: Greenhouse spray injury rating (Example 5); assay type: in vivo; settings: non-Clearfield, 14 DAT
# Text: as §3, §4
# [7] = test system: Sunflower line S4897; assay: Greenhouse spray injury rating (Example 5); assay type: in vivo; settings: 14 DAT
# Text: as §3, §4
# [8] = test system: Clearfield sunflower variety A; assay: Greenhouse spray injury rating (Example 5); assay type: in vivo; settings: variety A, 14 DAT
# Text: as §3, §4
# [9] = test system: AHAS of S4897 sunflower plants (Ala107-to-Thr); assay: AHAS activity inhibition (Example 5); assay type: biochemical, Helianthus annuus; settings: higher concentration of imazamox; compared to a Clearfield sunflower and conventional non Clearfield variety (FIG. 7)
# Experimental: AHAS activity analysis was also conducted by selecting actively growing young leaves from plants that were not sprayed with herbicide at approximately four weeks after planting.
smiles,measurement,setting,value
Cc1cnc(C2=NC(=O)C(C)(C(C)C)N2)c(C(=O)O)c1 (stereo not shown) [imazapic],resistance to imazapic compared with IMISUN-1,[1],clearly superior
COCc1cnc(C2=NC(C)(C(C)C)C(=O)N2)c(C(=O)O)c1 (stereo not shown) [imazamox],herbicide injury (resistance or tolerance vs IMISUN-1 and wild-type),[2],significantly greater resistance or tolerance
same,survival after spray treatment,[3],did not survive
same,Injury (scale 0 to 9),[4]; imazamox 75 gm ai/ha (100/75),1.8 b
same,Injury (scale 0 to 9),[4]; imazamox 150 gm ai/ha,2.9 b
same,Injury (scale 0 to 9),[4]; imazamox 300 gm ai/ha,4.6 b
same,Injury (scale 0 to 9),[5]; imazamox 75 gm ai/ha (100/75),1.9 b
same,Injury (scale 0 to 9),[5]; imazamox 150 gm ai/ha,4.8 c
same,Injury (scale 0 to 9),[5]; imazamox 300 gm ai/ha,5.3 c
same,Injury (scale 0 to 9),[6]; imazamox 75 gm ai/ha (100/75),7.2 days
same,Injury (scale 0 to 9),[6]; imazamox 150 gm ai/ha,8.2 days
same,Injury (scale 0 to 9),[6]; imazamox 300 gm ai/ha,8.7 e
same,Injury (scale 0 to 9),"[7]; imazamox 100 gm ai/ha + 0.5% Sun It II, 0 no injury, 9 dead plant",0.5 a
same,Injury (scale 0 to 9),[7]; imazamox 200 gm ai/ha,little to no injury
same,Injury (scale 0 to 9),"[7]; imazamox 200 gm ai/ha, listed as Imazamox",0.8 a
same,Injury (scale 0 to 9),[7]; imazamox 300 gm ai/ha,very little injury
same,Injury (scale 0 to 9),"[7]; imazamox 300 gm ai/ha, listed as Imazamox",0.8 a
same,Injury (scale 0 to 9),[8]; imazamox 75 gm ai/ha (100/75),4.3 c
same,Injury (scale 0 to 9),[8]; imazamox 150 gm ai/ha (column 200/150),significantly in juried and had stopped growing
same,Injury (scale 0 to 9),"[8]; imazamox 150 gm ai/ha (column 200/150), listed as Imazamox",4.6 c
same,Injury (scale 0 to 9),[8]; imazamox 300 gm ai/ha,6.5 days
same,inhibition of AHAS activity,[9],less inhibition
